# Measured values published in patent publication US10543212B2, “Substituted amines for treating cardiac diseases” (Cardurion Pharmaceuticals, LLC, priority 2017, dated 2020).
# pIC50: −log10 of the molar value.
# Biological target: T1, Full-length, GST-tagged, human CaMKIIδ (Homo sapiens, UniProt Q13557)
# T1 construct: Full-Length, Glutathione-S-Transferase(GST)-Tagged, Human CaMKIIδ was purchased from Carna Biosciences; purchased Carna Biosciences 02-111
# Test: CaMKIIδ binding assay (TR-FRET with BODIPY-labeled probe ligand)
# Conditions: CaMKIIδ binding assay, results of Table 2
# Procedure: In vitro CaMKIIδ inhibitory activity was evaluated by a binding assay.
# Full-Length, Glutathione-S-Transferase(GST)-Tagged, Human CaMKIIδ was purchased from Carna Biosciences (product #02-111, Kobe, Japan). Full-length bovine calmodulin was purchased from Wako Pure Chemical Industries (Osaka, Japan). Terbium-labeled anti-GST antibody (Tb-anti-GST Ab) was purchased from Life Technologies (Carlsbad, Calif., USA). Boron-dipyrromethene (BODIPY)-labeled probe ligand was synthesized as described below.
# Time-Resolved Fluorescence Resonance Energy Transfer (TR-FRET) Assay
# All assays were conducted using 384-well, white, flat-bottomed plates (product #784075, Greiner Bio-One, Frickenhausen, Germany) in kinase assay buffer, which consists of 50 mM HEPES pH 7.6, 10 mM MgCl2, 1 mM EGTA, 0.01% Brig-35, 0.1 mM DTT). The fluorescent probe ligand was added at a final concentration of 300 nM to solutions containing 0.21 nM Tb-anti-GST Ab, 1 mM CaCl2), 10 μg/mL calmodulin, and 0.5 nM GST-tagged CaMKIIδ. After shaded incubation of the protein-probe mixture on ice for 30 min, the premix was dispensed in the assay plate including test inhibitors with 4 fold dilution series of eight concentrations. After 1 hr incubation at room temperature, TR-FRET signals were measured in duplicate using an EnVision microplate reader (Perkin Elmer, Waltham, Mass., USA). The solution in each well was excited with a laser (λ=340 nm) reflected by a dichroic mirror (D400/D505 (Perkin Elmer) through an excitation filter (UV (TRF) 340, (Perkin Elmer)), and fluorescence from Tb and BODIPY were detected through two emission filters (CFP 495 (Perkin Elmer) for Tb, Emission 520 (Perkin Elmer) for BODIPY).
# The percentage of inhibition of test compounds was calculated according to equation (1) Inhibition (%)=100×([…]−T)/(μH−μL) (1)
# Where T is the value of the wells containing test compounds and μH and μL are the mean values of the 0% and 100% inhibition control wells, respectively. The values of the 0 and 100% controls were the signals obtained in the absence and presence of 3 μM its parent compound, respectively. The half maximal inhibitory concentration (IC50) of test compounds was calculated by fitting the data with the logistic equation using XLfit (IDBS, Guildford, UK). The IC50 was classified according to the following activity ranks.
# T1 sequence (Q13557 1-478 isoform Q13557-12): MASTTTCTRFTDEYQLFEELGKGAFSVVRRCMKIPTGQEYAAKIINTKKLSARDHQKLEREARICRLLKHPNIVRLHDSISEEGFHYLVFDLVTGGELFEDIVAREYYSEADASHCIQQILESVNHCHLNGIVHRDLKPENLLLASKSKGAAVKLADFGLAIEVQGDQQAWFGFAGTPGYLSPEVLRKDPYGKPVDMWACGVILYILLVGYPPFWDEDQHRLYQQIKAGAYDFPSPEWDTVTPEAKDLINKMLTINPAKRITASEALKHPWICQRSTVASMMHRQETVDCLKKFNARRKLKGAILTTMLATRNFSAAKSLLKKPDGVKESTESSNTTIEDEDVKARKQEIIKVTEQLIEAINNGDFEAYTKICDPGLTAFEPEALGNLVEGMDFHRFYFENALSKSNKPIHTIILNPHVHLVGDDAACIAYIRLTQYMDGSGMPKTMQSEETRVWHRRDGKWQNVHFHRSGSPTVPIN
row,Compound,pIC50
1,"COc1cc(C)c(C(=O)N2CCOCC2)cc1Nc1ncc(-c2ccc(Cl)c(O[C@@H](C)Cn3cnnn3)c2)cn1 [Example 439, (S)-(5-((5-(3-((1-(1H-tetrazol-1-yl)propan-2-yl)oxy)-4-chlorophenyl)pyrimidin-2-yl)amino)-4-methoxy-2-methylphenyl)(morpholino)methanone]",> 8.00
2,"C[C@@H](Cn1cnnn1)Oc1cc(-c2cnc(Nc3cn(C4CCN(C5CCN(C)CC5)CC4)nc3C(F)(F)F)nc2)ccc1Cl [Example 559, (S)-5-(3-((1-(1H-tetrazol-1-yl)propan-2-yl)oxy)-4-chlorophenyl)-N-(1-(1'-methyl-[1,4'-bipiperidin]-4-yl)-3-(trifluoromethyl)-1H-pyrazol-4-yl)pyrimidin-2-amine]",> 8.00
3,"COc1ccc(N2CCN(C3CCOCC3)CC2)cc1Nc1ncc(-c2ccc(Cl)c(O[C@@H](C)Cn3cnnn3)c2)cn1 [Example 582, (S)-5-(3-((1-(1H-tetrazol-1-yl)propan-2-yl)oxy)-4-chlorophenyl)-N-(2-methoxy-5-(4-(tetrahydro-2H-pyran-4-yl)piperazin-1-yl)phenyl)pyrimidin-2-amine]",> 8.00
4,"C[C@@H](Cn1cnnn1)Oc1cc(-c2cnc(Nc3cn(CC4CCNC4)nc3C(F)(F)F)nc2)ccc1Cl (stereo partly drawn) [Example 572, 5-(3-(((S)-1-(1H-tetrazol-1-yl)propan-2-yl)oxy)-4-chlorophenyl)-N-(1-(pyrrolidin-3-ylmethyl)-3-(trifluoromethyl)-1H-pyrazol-4-yl)pyrimidin-2-amine]",> 8.00
5,"COc1cc2c(cc1Nc1ncc(-c3ccc(Cl)c(O[C@@H](C)Cn4cnnn4)c3)cn1)C(=O)N(CC1COC1)C2 [Example 445, (S)-6-((5-(3-((1-(1H-tetrazol-1-yl)propan-2-yl)oxy)-4-chlorophenyl)pyrimidin-2-yl)amino)-5-methoxy-2-(oxetan-3-ylmethyl)isoindolin-1-one]",7.00 to 8.00

# Same assay, conditions: CaMKIIδ binding assay; activity class per Table 2
row,Compound,pIC50
1,"CC(Cn1cnnn1)Oc1cc(-c2cnc(Nc3cn(CC4(O)CCC(N5CCOCC5)CC4)nc3OCC(F)(F)F)nc2)ccc1Cl [Example 911, trans-1-((4-((5-(3-(((S)-1-(1H-tetrazol-1-yl)propan-2-yl)oxy)-4-chlorophenyl)pyrimidin-2-yl)amino)-3-(2,2,2-trifluoroethoxy)-1H-pyrazol-1-yl)methyl)-4-morpholinocyclohexan-1-ol]",> 8.00
2,"CC(C)c1nn(C2CC3(C2)CN(CC(C)(C)O)C3)cc1Nc1ncc(-c2ccc(Cl)c(O[C@@H](C)Cn3cnnn3)c2)cn1 [Example 947, (S)-1-(6-(4-((5-(3-((1-(1H-tetrazol-1-yl)propan-2-yl)oxy)-4-chlorophenyl)pyrimidin-2-yl)amino)-3-isopropyl-1H-pyrazol-1-yl)-2-azaspiro[3.3]heptan-2-yl)-2-methylpropan-2-ol]",> 8.00
3,"C[C@@H](Cn1cnnn1)Oc1cc(-c2cnc(Nc3cn(C4CC5(C4)CN(C4CCOCC4)C5)nc3OCC(F)(F)F)nc2)ccc1C(F)F [Example 939, (S)-5-(3-((1-(1H-tetrazol-1-yl)propan-2-yl)oxy)-4-(difluoromethyl)phenyl)-N-(1-(2-(tetrahydro-2H-pyran-4-yl)-2-azaspiro[3.3]heptan-6-yl)-3-(2,2,2-trifluoroethoxy)-1H-pyrazol-4-yl)pyrimidin-2-amine]",> 8.00
4,"C[C@@H](Cn1cnnn1)Oc1cc(-c2cnc(Nc3cn(C4CC5(C4)CN(c4ccccn4)C5)nc3OCC(F)(F)F)nc2)ccc1Cl [Example 1001, (S)-5-(3-((1-(1H-tetrazol-1-yl)propan-2-yl)oxy)-4-chlorophenyl)-N-(1-(2-(pyridin-2-yl)-2-azaspiro[3.3]heptan-6-yl)-3-(2,2,2-trifluoroethoxy)-1H-pyrazol-4-yl)pyrimidin-2-amine]",> 8.00
5,"CC(C)c1nn(C2CC3(C2)CN(C2(C)CCOC2)C3)cc1Nc1ncc(-c2ccc(Cl)c(O[C@@H](C)Cn3cnnn3)c2)cn1 (stereo partly drawn) [Example 956, 5-(3-(((S)-1-(1H-tetrazol-1-yl)propan-2-yl)oxy)-4-chlorophenyl)-N-(3-isopropyl-1-(2-(3-methyltetrahydrofuran-3-yl)-2-azaspiro[3.3]heptan-6-yl)-1H-pyrazol-4-yl)pyrimidin-2-amine]",> 8.00

# Same assay, conditions: Table 2; CaMKIIδ binding assay, activity given as class A/B/C
row,Compound,pIC50
1,"Cc1ccc(-c2cnc(Nc3cn([C@H]4CC[C@H](N5CCOCC5)CC4)nc3OCC(F)(F)F)nc2)cc1O[C@@H](C)Cn1cnnn1 [Example 811, 5-(3-(((S)-1-(1H-tetrazol-1-yl)propan-2-yl)oxy)-4-methylphenyl)-N-(1-(trans-4-morpholinocyclohexyl)-3-(2,2,2-trifluoroethoxy)-1H-pyrazol-4-yl)pyrimidin-2-amine]",> 8.00
2,"C[C@@H](Cn1cnnn1)Oc1cc(-c2cnc(Nc3snnc3-c3ccc(Cl)cc3)nc2)ccc1Cl [Example 748, (S)-N-(5-(3-((1-(1H-tetrazol-1-yl)propan-2-yl)oxy)-4-chlorophenyl)pyrimidin-2-yl)-4-(4-chlorophenyl)-1,2,3-thiadiazol-5-amine]",≤ 7.00
3,"C[C@@H](Cn1cccn1)Oc1cc(-c2cnc(Nc3cn([C@H]4CC[C@@H](N5CCOCC5)CC4)nc3OCC(F)(F)F)nc2)ccc1C#N [Example 797, 2-(((S)-1-(1H-pyrazol-1-yl)propan-2-yl)oxy)-4-(2-((1-(cis-4-morpholinocyclohexyl)-3-(2,2,2-trifluoroethoxy)-1H-pyrazol-4-yl)amino)pyrimidin-5-yl)benzonitrile]",7.00 to 8.00
4,"C[C@@H](Cn1cnnn1)Oc1cc(-c2cnc(Nc3cn(C4CCN(C5CCOCC5)CC4)nc3OCCF)nc2)ccc1Cl [Example 825, (S)-5-(3-((1-(1H-tetrazol-1-yl)propan-2-yl)oxy)-4-chlorophenyl)-N-(3-(2-fluoroethoxy)-1-(1-(tetrahydro-2H-pyran-4-yl)piperidin-4-yl)-1H-pyrazol-4-yl)pyrimidin-2-amine]",> 8.00
5,"C[C@@H](Cn1cnnn1)Oc1cc(-c2cnc(Nc3ncc(CO)n3C)nc2)ccc1Cl [Example 750, (S)-(2-((5-(3-((1-(1H-tetrazol-1-yl)propan-2-yl)oxy)-4-chlorophenyl)pyrimidin-2-yl)amino)-1-methyl-1H-imidazol-5-yl)methanol]",≤ 7.00
6,"C[C@@H](Cn1cnnn1)Oc1cc(-c2cnc(Nc3cn(CCN)nc3C(F)(F)F)nc2)ccc1Cl [Example 877, (S)-5-(3-((1-(1H-tetrazol-1-yl)propan-2-yl)oxy)-4-chlorophenyl)-N-(1-(2-aminoethyl)-3-(trifluoromethyl)-1H-pyrazol-4-yl)pyrimidin-2-amine]",> 8.00
7,"C[C@@H](Cn1cnnn1)Oc1cc(-c2cnc(Nc3cn(CC(C)(C)NC(=O)OC(C)(C)C)nc3C(F)(F)F)nc2)ccc1Cl [Example 860, tert-butyl (S)-(1-(4-((5-(3-((1-(1H-tetrazol-1-yl)propan-2-yl)oxy)-4-chlorophenyl)pyrimidin-2-yl)amino)-3-(trifluoromethyl)-1H-pyrazol-1-yl)-2-methylpropan-2-yl)carbamate]",≤ 7.00

# Same assay, conditions: Table 2; activity class for CaMKIIδ
row,Compound,pIC50
1,"COc1nc(N2CCN(C3CCOC3)CC2)ccc1Nc1ncc(-c2ccc(Cl)c(O[C@@H](C)Cn3cnnn3)c2)cn1 (stereo partly drawn) [Example 640, 5-(3-(((S)-1-(1H-tetrazol-1-yl)propan-2-yl)oxy)-4-chlorophenyl)-N-(2-methoxy-6-(4-(tetrahydrofuran-3-yl)piperazin-1-yl)pyridin-3-yl)pyrimidin-2-amine]",7.00 to 8.00
2,"COc1cc(N2CCN3CCCC3C2)ccc1Nc1ncc(-c2ccc(Cl)c(O[C@@H](C)Cn3cnnn3)c2)cn1 (stereo partly drawn) [Example 672, 5-(3-(((S)-1-(1H-tetrazol-1-yl)propan-2-yl)oxy)-4-chlorophenyl)-N-(4-(hexahydropyrrolo[1,2-a]pyrazin-2(1H)-yl)-2-methoxyphenyl)pyrimidin-2-amine]",> 8.00
3,"COCCn1nc(C)cc1Nc1ncc(-c2ccc(Cl)c(O[C@@H](C)Cn3cnnn3)c2)cn1 [Example 655, (S)-5-(3-((1-(1H-tetrazol-1-yl)propan-2-yl)oxy)-4-chlorophenyl)-N-(1-(2-methoxyethyl)-3-methyl-1H-pyrazol-5-yl)pyrimidin-2-amine]",≤ 7.00
4,"CCn1cc(Nc2ncc(-c3ccc(Cl)c(O[C@@H](C)Cn4cnnn4)c3)cn2)c(C(F)(F)F)n1 [Example 674, (S)-5-(3-((1-(1H-tetrazol-1-yl)propan-2-yl)oxy)-4-chlorophenyl)-N-(1-ethyl-3-(trifluoromethyl)-1H-pyrazol-4-yl)pyrimidin-2-amine]",7.00 to 8.00
